Measured values as given in patent US12612413B2, “Heteroaryl compounds as inhibitors of programmed necrosis pathway, composition and method using the same” (ACCRO BIOSCIENCE INC., priority 2020, dated 2026).

Key:
Assay type in all cases: cell-based
HT-29 cells = experiment: HT-29 cell viability (necroptosis) assay; details: Homo sapiens, TNF-α (40 ng/mL), Smac mimetic (100 nM), z-VAD (20 μM), 40 h, from survival rate curve
Procedure: Human colon cancer HT-29 cells were used in a necroptosis assay. For this assay, HT-29 cells were added to 96-well plates. The compounds at different concentrations (0.3, 1.0, 3.0, 10.0, 20.0 μM) were then preprocessed for two hours. TNF-α (40 ng/mL), Smac mimetic (100 nM) and z-VAD (20 μM) were added, and the mixture was incubated for 40 h. Quantitative analysis of cell viability was conducted. DMSO pretreatment group was used as a negative control. Concentration for 50% of maximal effect was calculated according to the curve of the survival rate measured at different concentrations. FIG. 1 depicts the EC50 curves of compound A16.

L929 cells = experiment: L929 cell viability (necroptosis) assay; details: Mus musculus, TNF-α (40 ng/mL), z-VAD (20 μM), 16 h
Procedure: (§1) L929 cells were added to 96-well plate. The compounds at different concentrations (0.3, 1.0, 3.0, 10.0, 20.0 μM) were then preprocessed for two hours. TNF-α (40 ng/mL), and z-VAD (20 μM) were added, and the mixture was incubated for 16 h. Quantitative analysis of cell survival was conducted. DMSO pretreatment was used as a negative control. Concentration for 50% of maximal effect was calculated according to the curve of the survival rate measured at different concentrations. FIG. 3 depicts the EC50 curves of compound A3.

MEF cells = experiment: MEF cell viability (necroptosis) assay; details: Mus musculus, TNF-α (40 ng/mL), Smac mimetic (100 nM), z-VAD (20 μM), 12 h
Procedure: as §1, with “MEF cells” for “L929 cells”, “ng/mL), Smac mimetic (100 nM)” for “ng/mL),”, “for 12” for “for 16”, “pretreatment group” for “pretreatment”, “FIG. 2” for “FIG. 3”, “compound A9.” for “compound A3.”

| SMILES | EC50 (HT-29 cells) [µM] | EC50 (L929 cells) [µM] | EC50 (MEF cells) [µM] |
| --- | --- | --- | --- |
| CC1=Cc2cc3nccc(Nc4ccc5scnc5c4)c3cc2S1(=O)=O [Compound A3] | 0.62 | 1.94 | – |
| CC1=CS(=O)(=O)c2cc3c(Nc4ccc5scnc5c4)ccnc3cc21 [Compound A7] | 0.38 | 0.24 | – |
| O=S1(=O)C=C(C2CC2)c2cc3nccc(Nc4ccc5scnc5c4)c3cc21 [Compound A9] | 0.085 | 0.21 | 0.24 |
| CCOC1=CS(=O)(=O)c2cc3c(Nc4ccc5scnc5c4)ccnc3cc21 [Compound A13] | 0.43 | 0.78 | 0.2 |
| CC(C)OC1=CS(=O)(=O)c2cc3c(Nc4ccc5scnc5c4)ccnc3cc21 [Compound A14] | 0.28 | – | 0.29 |
| COCCOC1=CS(=O)(=O)c2cc3c(Nc4ccc5scnc5c4)ccnc3cc21 [Compound A17] | 0.26 | – | 0.3 |
| CCOC1=C(C)S(=O)(=O)c2cc3c(Nc4ccc5scnc5c4)ccnc3cc21 [Compound A20] | 0.28 | 0.42 | 0.31 |
| CC1=C(OCC2CC2)c2cc3nccc(Nc4ccc5scnc5c4)c3cc2S1(=O)=O [Compound A21] | 0.31 | 8.73 | 0.44 |
| O=S1(=O)C=C(c2ccccc2)c2cc3nccc(Nc4ccc5scnc5c4)c3cc21 [Compound A22] | 0.45 | – | 0.83 |
| Cn1ccc(C2=CS(=O)(=O)c3cc4c(Nc5ccc6scnc6c5)ccnc4cc32)n1 [Compound A33] | 0.35 | – | 0.38 |
| O=S1(=O)CCc2cc3nccc(Nc4ccc5scnc5c4)c3cc21 [Compound B1, 8-(benzo[d]thiazol-5-ylamino)-2,3-dihydrothieno[2,3-g]quinoline 1,1-dioxide] | 1.74 | 64 | – |
| O=S1(=O)CC2(OCCO2)c2cc3nccc(Nc4ccc5scnc5c4)c3cc21 [Compound B2, 8-(benzo[d]thiazol-5-ylamino)-2H-spiro[thieno[2,3-g]quinoline-3,2′-[1,3]dioxolane]1,1-dioxide] | 0.3 | 0.43 | 0.435 |
| CC1(C)C(=O)c2cc3nccc(Nc4ccc5scnc5c4)c3cc2S1(=O)=O [Compound B4, 8-(benzo[d]thiazol-5-ylamino)-2,2-dimethylthieno[2,3-g]quinolin-3(2H)-one 1,1-dioxide] | 2.08 | – | 9.33 |
| C=C1c2cc3nccc(Nc4ccc5scnc5c4)c3cc2S(=O)(=O)C1(C)C [Compound B8, 8-(benzo[d]thiazol-5-ylamino)-2,2-dimethyl-3-methylene-2,3-dihydrothieno[2,3-g]quinoline 1,1-dioxide] | 0.93 | – | 1.77 |
